Data taken from US5795899A, “Soluble salts of 4-amino-2-(4,4-dimethylimidazolidin-2-on-1-yl) pyrimidine-5-carboxylic acid N-methyl-N-(3-trifluoromethylphenyl)-amide, a process for the preparation thereof, the use thereof as pharmaceuticals and starting materials” (Hoechst Aktiengesellschaft, priority 1992, dated 1998).

Tests used:
serum lipoproteins = experiment: Effect on serum lipoproteins of normolipemic male rats in a subchronic test; format: in vivo, male Wistar rats, HOE: WISKf (SPF 71) strain; conditions: for % change compared with control, protein LDL / % change compared with control, total cholesterol LDL / % change compared with control, total cholesterol VLDL / % change compared with control, triglycerides VLDL: oral, 7 days
Experimental: 4.1 Effect on serum lipoproteins of normolipemic male rats in a subchronic test
Groups of in each case 10 male rats of the HOE: WISKf (SPF 71) strain with an initial weight above 180 g received once a day (in the morning) the test product or the comparison product in 1% aqueous ®Tylose MH 300 solution by stomach tube (0.5 ml/100 g of body weight); the control group in each case received only the vehicle. The last (7th) administration took place 24 hours before removal of blood and sacrifice. There was free access to food and water during the test. The food was withdrawn 24 hours before the removal of blood.
The serum from all 10 rats in a group was pooled for the analysis of the serum lipoproteins. The serum lipoproteins were separated with a preparative ultracentrifuge (KONTRON TGA 65, Rotor BECKMAN 50.4 Ti).
The following conditions specified by Koga, S., Horwitz, D. L., and Scanu, A. M., Journal of Lipid Research 10, 577 (1969) and Havel, R. J., Eder, H. A., and Bragdon, H. H., J. Clin. Invest. 34, 1345 (1955) were used to separate VLDL, LDL and HDL:
Test kits from BOEHRINGER/Mannheim were used for the enzymatic determination of cholesterol and triglycerides in the separated lipoprotein fractions (compare Siedel, J., Schlumberger, H., Klose, S., Ziegenhorn, J. and Wahlefeld, A. W., J. Clin. Chem. Clin. Biochem. 19, 838 (1981) and Wahlefeld, A. W., in: H. O. Bergmeier: Methoden der enzymatischen Analyse (Methods of Enzymatic Analysis), 2nd edition, Volume II, Verlag Chemie 1974, page 1878). The proteins were determined by the method of Lowry (Lowry, O. H., Roseborough, N. J., Farr, A. L. and R. J. Randell, J. Biol. Chem. 193, 265 (1951)).
Clofibrate was used as comparison product.

hypercholesterolemia = experiment: Effect on experimental hypercholesterolemia in male rats; format: in vivo, male Wistar rats, HOE: WISKf (SPF 71) strain; conditions: oral, 7 days; for Total cholesterol (x): mean x
Experimental: Groups of in each case 10 male rats of the HOE: WISKf (SPF 71) strain with a weight of about 200 g received each day in the morning a cocktail which contained the substances required to generate a combined dietetic/hormonal hypercholesterolemia, and in each case the product to be tested for the inhibition of hypercholesterolemia, in appropriate dosage. The cocktail was composed of a mixture of 100 g of cholesterol, 30 g of propylthiouracil and 100 g of cholic acid in 1 l of peanut oil. 1 ml of this/100 g of body weight was administered by gavage. The products to be tested were suspended in this cocktail in a concentration such that it contained the daily dose indicated in Table 4 on administration of the amount mentioned above. The other procedure for the treatment and the analysis of the individual parameters were carried out as indicated under 4.1.
Clofibrate was used as comparison product. The results are compiled in Table 4, wherein a) indicates the absolute values and b) indicates the percentage changes.

[1] = tested on: carbohydrate-induced hypertriglyceridemia; experiment: Inhibition of carbohydrate-induced hypertriglyceridemia; format: in vivo, male Sprague-Dawley rats; conditions: oral, 4 days; for Triglycerides in serum (x): mean x
Experimental: Groups of in each case 10 male Sprague-Dawley rats (supplied by the breeder Mollegard with a weight of 250-280 g) received on each of 4 consecutive days one administration of the compound dissolved in PEG 400 by gavage. In addition, after the 3rd administration and 8 and 24 hours later they received 2.5 g of fructose/kg, likewise by gavage. Moreover, after the 3rd administration of product, 50% strength fructose solution was offered to them as drinking water ad libitum, and the food was withdrawn. Retroorbital removal of blood, from which the serum was obtained for the triglyceride determination and VLDL preparation in the ultracentrifuge (flotation at d=1.006), took place 3 hours after the last product/fructose administration. The food received by the animals from 1 week before the 1st administration and up to the 3rd administration was a diet with 40% casein in the feed meal.
The animals develop, as a result of this treatment, a hypertriglyceridemia which approximately corresponds to Fredrickson phenotype IV in humans. The serum triglycerides of the normal animals increased from 0.54 to 1.1 mmol/l, and the VLDL triglycerides from 0.67 to 1.81.

[2] = Side effects like those observed with the statins; conditions: general statement
[3] = tested on: tumor cells (L 1210, A 549, HT 29); experiment: Cell proliferation inhibition (MTT assay), overall statement; format: cell-based, mouse and human
Experimental: The reduced inhibitory effect on cell proliferation was tested on exponentially growing animal (mouse leukemia cells, L 1210) and human (bronchial carcinoma cells, A 549; colon carcinoma cells, HT 29) tumor cells. This entailed the tumor cells being incubated in RPMI standard medium with various concentrations of the test substances for 72 hours. Cell incubations only in fresh medium served as control. Incubations were set up in quadruplet. […] After incubation for a further 7 to 24 hours, the cell supernatant was carefully removed and the formazan dye in the cells was solubilized by adding DMSO and measured quantitatively by photometry at 492 nm. The ratio of the extinction of the substance incubations to the control incubation was quantified. The coefficient of variation in each incubation series was less than 15%. The following Table 6 indicates the IC50 values (IC50 [μg/ml] is the concentration of the test substance per ml which is necessary for 50% inhibition) from these investigations.

physchem = conditions: water

CN(C(=O)c1cnc(N2CC(C)(C)NC2=O)nc1N)c1cccc(C(F)(F)F)c1 [Compound I, 4-amino-2-(4,4-dimethylimidazolidin-2-on-1-yl)pyrimidine-5-carboxylic acid N-methyl-N-(3-trifluoromethylphenyl)amide]
% change compared with control, protein LDL (serum lipoproteins; 1 mg/kg/day): -15%
% change compared with control, total cholesterol LDL (serum lipoproteins; 1 mg/kg/day): -17%
% change compared with control, total cholesterol VLDL (serum lipoproteins; 1 mg/kg/day): +4%
% change compared with control, triglycerides VLDL (serum lipoproteins; 1 mg/kg/day): +8%
% change compared with control, protein LDL (serum lipoproteins; 3 mg/kg/day): -25%
% change compared with control, total cholesterol LDL (serum lipoproteins; 3 mg/kg/day): -32%
% change compared with control, total cholesterol VLDL (serum lipoproteins; 3 mg/kg/day): -24%
% change compared with control, triglycerides VLDL (serum lipoproteins; 3 mg/kg/day): -25%
% change compared with control, protein LDL (serum lipoproteins; 10 mg/kg/day): -41%
% change compared with control, total cholesterol LDL (serum lipoproteins; 10 mg/kg/day): -49%
% change compared with control, total cholesterol VLDL (serum lipoproteins; 10 mg/kg/day): -52%
% change compared with control, triglycerides VLDL (serum lipoproteins; 10 mg/kg/day): -62%
% change compared with control, protein LDL (serum lipoproteins; 30 mg/kg/day): -52%
% change compared with control, total cholesterol LDL (serum lipoproteins; 30 mg/kg/day): -64%
% change compared with control, total cholesterol VLDL (serum lipoproteins; 30 mg/kg/day): -59%
% change compared with control, triglycerides VLDL (serum lipoproteins; 30 mg/kg/day): -79%
HDL levels (in words) (serum lipoproteins; general statement): unaffected
% change compared with control, protein "HDL" d > 1.04 (hypercholesterolemia; 10 mg/kg/day): -7%
% change compared with control, protein LDL (hypercholesterolemia; 10 mg/kg/day): -16%
% change compared with control, protein VLDL (hypercholesterolemia; 10 mg/kg/day): -8%
% change compared with control, total cholesterol "HDL" d > 1.04 (hypercholesterolemia; 10 mg/kg/day): -14%
% change compared with control, total cholesterol LDL (hypercholesterolemia; 10 mg/kg/day): -13%
% change compared with control, total cholesterol VLDL (hypercholesterolemia; 10 mg/kg/day): -34%
% change compared with control, triglycerides VLDL (hypercholesterolemia; 10 mg/kg/day): -54%
Lipoprotein fraction protein "HDL" (hypercholesterolemia; 10 mg/kg/day): 5004
Lipoprotein fraction protein LDL (hypercholesterolemia; 10 mg/kg/day): 1040
Lipoprotein fraction protein VLDL (hypercholesterolemia; 10 mg/kg/day): 1981
Lipoprotein fraction total cholesterol "HDL" (hypercholesterolemia; 10 mg/kg/day): 508
Lipoprotein fraction total cholesterol LDL (hypercholesterolemia; 10 mg/kg/day): 4099
Lipoprotein fraction total cholesterol VLDL (hypercholesterolemia; 10 mg/kg/day): 3088
Lipoprotein fraction triglycerides VLDL (hypercholesterolemia; 10 mg/kg/day): 677
Serum % change compared with control at the end of treatment, total cholesterol (hypercholesterolemia; 10 mg/kg/day): -24%
Serum % change compared with control at the end of treatment, triglycerides (hypercholesterolemia; 10 mg/kg/day): -16%
Triglycerides, pool (hypercholesterolemia; 10 mg/kg/day): 2.45 mmol/L
Total cholesterol (x) (hypercholesterolemia; 10 mg/kg/day): 556 mg/dL
% change compared with control, protein "HDL" d > 1.04 (hypercholesterolemia; 30 mg/kg/day): -24%
% change compared with control, protein LDL (hypercholesterolemia; 30 mg/kg/day): -68%
% change compared with control, protein VLDL (hypercholesterolemia; 30 mg/kg/day): -49%
% change compared with control, total cholesterol "HDL" d > 1.04 (hypercholesterolemia; 30 mg/kg/day): +79%
% change compared with control, total cholesterol LDL (hypercholesterolemia; 30 mg/kg/day): -92%
% change compared with control, total cholesterol VLDL (hypercholesterolemia; 30 mg/kg/day): -97%
% change compared with control, triglycerides VLDL (hypercholesterolemia; 30 mg/kg/day): -71%
Lipoprotein fraction protein "HDL" (hypercholesterolemia; 30 mg/kg/day): 4090
Lipoprotein fraction protein LDL (hypercholesterolemia; 30 mg/kg/day): 391
Lipoprotein fraction protein VLDL (hypercholesterolemia; 30 mg/kg/day): 1105
Lipoprotein fraction total cholesterol "HDL" (hypercholesterolemia; 30 mg/kg/day): 1056
Lipoprotein fraction total cholesterol LDL (hypercholesterolemia; 30 mg/kg/day): 369
Lipoprotein fraction total cholesterol VLDL (hypercholesterolemia; 30 mg/kg/day): 126
Lipoprotein fraction triglycerides VLDL (hypercholesterolemia; 30 mg/kg/day): 425
Serum % change compared with control at the end of treatment, total cholesterol (hypercholesterolemia; 30 mg/kg/day): -81%
Serum % change compared with control at the end of treatment, triglycerides (hypercholesterolemia; 30 mg/kg/day): -62%
Triglycerides, pool (hypercholesterolemia; 30 mg/kg/day): 1.10 mmol/L
Total cholesterol (x) (hypercholesterolemia; 30 mg/kg/day): 137 mg/dL
Triglycerides in serum, % change from fructose control ([1]; 1 mg/kg/day): -36%
Triglycerides in the VDVL fraction, % change from fructose control ([1]; 1 mg/kg/day): -45%
Triglycerides in the VDVL fraction, pool n = 10 ([1]; 1 mg/kg/day): 1.00 mmol/L
Triglycerides in serum (x) ([1]; 1 mg/kg/day): 0.71 mmol/L
Triglycerides in serum, % change from fructose control ([1]; 3 mg/kg/day): -51%
Triglycerides in the VDVL fraction, % change from fructose control ([1]; 3 mg/kg/day): -62%
Triglycerides in the VDVL fraction, pool n = 10 ([1]; 3 mg/kg/day): 0.69 mmol/L
Triglycerides in serum (x) ([1]; 3 mg/kg/day): 0.54 mmol/L
Triglycerides in serum, % change from fructose control ([1]; 10 mg/kg/day): -68%
Triglycerides in the VDVL fraction, % change from fructose control ([1]; 10 mg/kg/day): -80%
Triglycerides in the VDVL fraction, pool n = 10 ([1]; 10 mg/kg/day): 0.37 mmol/L
Triglycerides in serum (x) ([1]; 10 mg/kg/day): 0.35 mmol/L
Triglycerides in serum, % change from fructose control ([1]; 30 mg/kg/day): -74%
Triglycerides in the VDVL fraction, % change from fructose control ([1]; 30 mg/kg/day): -90%
Triglycerides in the VDVL fraction, pool n = 10 ([1]; 30 mg/kg/day): 0.19 mmol/L
Triglycerides in serum (x) ([1]; 30 mg/kg/day): 0.29 mmol/L
Side effects of the statin type observed to date [2]: Nor have side effects of this type been observed to date
Proliferation inhibition compared with imanixil (HOE 402) / its hydrochloride (in words) [3]: distinctly reduced proliferation inhibition
Solubility in water (in words): exceptionally slightly soluble in water
1 part by mass dissolves in . . . parts of H2 O (Table 2, Temp. [°C]: hydrochloride 25.0, nitrate 23.5, p-toluenesulfonate 23.2, hydrogen (R,R)-tartrate 24.6, free base 24.8): 1220 parts of H2 O
solubility (physchem): 800 µg/mL
solubility (physchem; Solubility in water: molarity, Table 2, free base, 24.8 °C): 2000 µM
